{"source": "patent US20100151056A1", "about": "“DIETARY SUPPLEMENTS FOR DECREASING THE LATENT FOREIGN DNA LOAD” (priority 2008, published 2010)", "origin": "cited, not measured here", "key": {"[1]": {"system": "HBV cccDNA in HepG2-N10 cells", "conditions": "22.9 ug/ml"}, "[2]": {"system": "EBV immediate-early protein Rta in P3HR1 cells"}, "[3]": {"system": "Epstein-Barr virus in Raji cells", "conditions": "Raji cells superinfected with P2HR1 (LS) virus; read-out: concentration inhibiting EBV genome copy number and antigen expression by 50% (EC50)"}, "cdk6": {"system": "cdk6", "conditions": "BC-1, BCBL-1 and BC-3 cells, Western blot"}, "LT1/LT2 promoter": {"system": "LT1/LT2 promoter", "conditions": "BJAB cells, GA-treated vs untreated"}, "AIF": {"system": "AIF", "conditions": "KSHV-positive B cells, GA for 4 days"}, "B cells": {"system": "B cells", "conditions": "3 and 4 mM"}, "caspase cascade": {"system": "caspase cascade", "conditions": "KSHV-positive B cells untreated and GA-treated, ELISA"}, "[4]": {"system": "LANA-1, v-cyclin, and v-FLIP proteins"}, "[5]": {"system": "KSHV-positive and uninfected B cells"}, "[6]": {"system": "KSHV latent genes (LANA-1, v-cyclin, v-FLIP)"}}, "note": "Read-outs that look alike come from different tables or passages of the source."}
{"smiles": "O=C(O[C@@H]1Cc2c(O)cc(O)cc2O[C@@H]1c1cc(O)c(O)c(O)c1)c1cc(O)c(O)c(O)c1", "note": "[EGCG, Epigallocatechin gallate]", "values": [{"measurement": "reduction of HBV cccDNA concentration", "setting": "[1]", "result": 60, "unit": "%"}, {"measurement": "P3HR1 cells expressing Rta", "setting": "[2]; 70 mM EGCG", "result": 9.8, "unit": "%"}, {"measurement": "P3HR1 cells expressing Rta", "setting": "[2]; 100 mM EGCG", "result": 0.5, "unit": "%"}]}
{"smiles": "CC1(C)[C@@H](O[C@H]2O[C@H](C(=O)O)[C@@H](O)[C@H](O)[C@H]2O[C@@H]2O[C@H](C(=O)O)[C@@H](O)[C@H](O)[C@H]2O)CC[C@]2(C)[C@H]3C(=O)C=C4[C@@H]5C[C@@](C)(C(=O)O)CC[C@]5(C)CC[C@@]4(C)[C@]3(C)CC[C@@H]12", "note": "[GA, glycyrrhizic acid]", "values": [{"measurement": "apoptosis in BJAB cells", "setting": "KSHV-positive B cells; KSHV-negative BJAB control cells", "result": "did not result in apoptosis"}, {"measurement": "apoptosis (TUNEL-positive cells)", "setting": "KSHV-positive B cells; KSHV-positive cells, FACS", "result": "80-95%"}, {"measurement": "disruption of mitochondrial membranes or DNA condensation", "setting": "KSHV-positive B cells; uninfected B cells treated with GA", "result": "no disruptions"}, {"measurement": "EC50", "setting": "[3]", "result": "~5", "unit": "µM"}, {"measurement": "increase of cdk6 expression", "setting": "cdk6", "result": "8- to 11 fold"}, {"measurement": "LT1/LT2 promoter activity (luciferase expression)", "setting": "LT1/LT2 promoter", "result": "does not affect"}, {"measurement": "AIF localisation", "setting": "AIF", "result": "diffuse nuclear staining"}, {"measurement": "toxicity at the tested levels", "setting": "B cells", "result": "not being toxic"}, {"measurement": "phosphorylated form of p53", "setting": "p53; BC-3 cells transfected with pLPCX/LANA-1, 4 mM GA for 4 days", "result": "very low concentration"}, {"measurement": "p53 phosphorylated at Ser15", "setting": "p53; KSHV-positive B cells following GA", "result": "high concentration"}, {"measurement": "activation of the caspase cascade", "setting": "caspase cascade", "result": "no activation"}, {"measurement": "LANA-1 expression", "setting": "[4]; KSHV positive cells, BCBL-1, BC-3, BC-1 treated 2, 3, 6 days", "result": "decreased"}, {"measurement": "cells over-expressing v-cyclin", "setting": "[4]; KSHV-positive B cells following GA treatment, FACS", "result": "35-50%"}, {"measurement": "catalase activity increase", "setting": "catalase; BC-1", "result": 3, "unit": "fold"}, {"measurement": "catalase activity increase", "setting": "catalase; BC-3", "result": 4, "unit": "fold"}, {"measurement": "catalase activity increase", "setting": "catalase; BCBL-1", "result": 2, "unit": "fold"}, {"measurement": "cells blocked in G1", "setting": "[5]; KSHV-positive B cells, after 6 days GA", "result": 99, "unit": "%"}, {"measurement": "cells blocked in G1", "setting": "[5]; uninfected cells, untreated or following GA", "result": "25-50%"}, {"measurement": "LT1 transcripts (LANA-1 probe)", "setting": "[6]; GA 3 and 4 mM, BCBL-1 2 days, BC-3 3 days, BC-2 and BC-1 6 days", "result": "dose-dependent decrease"}, {"measurement": "LT2 transcripts (v-FLIP and v-cyclin probes)", "setting": "[6]; GA-treated KSHV-positive B cells", "result": "increase"}]}
{"smiles": "CCCCCCCCCCCCCC(=O)O[C@@H]1[C@@H](C)[C@@]2(O)[C@@H](C=C(CO)C[C@]3(O)C(=O)C(C)=C[C@@H]23)[C@@H]2C(C)(C)[C@]12OC(C)=O", "note": "[TPA, 12-O-tetradecanoyl-phorbol-13-acetate, reference compound]", "values": [{"measurement": "disruption of mitochondrial membranes or DNA condensation", "setting": "KSHV-positive B cells; TPA treatment (latent to lytic switch)", "result": "did not disrupt"}]}
{"smiles": "CC(/C=C/C(=O)NO)=C\\[C@@H](C)C(=O)c1ccc(N(C)C)cc1", "note": "[TSA, reference compound]", "values": [{"measurement": "P3HR1 cells expressing Rta", "setting": "[2]; following treatment with TSA", "result": 23.4, "unit": "%"}]}
{"smiles": "C[C@H]1[C@H](OC(=O)CCC(=O)O)O[C@@H]2O[C@@]3(C)CC[C@H]4[C@H](C)CC[C@@H]1[C@@]24OO3", "note": "[artesunate, Artesunate]", "values": [{"measurement": "viremia after completion of therapy", "setting": "CMV; 76 days after completion of therapy", "result": "no increase in viremia"}, {"measurement": "viral decay T 1/2", "setting": "CMV; CMV load kinetics during treatment", "result": "22 to 45.6", "unit": "h"}, {"measurement": "decrease of viral DNA load", "setting": "CMV; by day 7, oral 100 mg/day", "result": "1.7-2.1 log"}, {"measurement": "adverse effects", "setting": "CMV; first 30 days of treatment", "result": "no adverse effects"}, {"measurement": "time to rapid reduction in viral load and improved hematopoiesis", "setting": "CMV; oral 100 mg/day", "result": "≤ 10", "unit": "days"}]}
{"smiles": "Nc1nc(O)c2ncn(COC(CO)CO)c2n1", "note": "[ganciclovir]", "values": [{"measurement": "reduction of viral DNA load", "setting": "CMV; by day 7, initial ganciclovir treatment of the same patient", "result": 1, "unit": "log"}]}
